Experimental data reported in patent publication US11065253B2, “Arylquinazolines” (Merck Patent GmbH, priority 2013, dated 2021).
pIC50: −log10 of the molar value.

System: phospho-serine 2056 DNA-PK in HCT116 cells
Assay: DNA-PK phosphorylation at serine 2056 (cellular), ELISA in bleomycin-treated HCT116 cells
Type: cell-based
Conditions: Homo sapiens, HCT-116, 6 h, cellular; HCT116 cells, 10 μM bleomycin, six hours; read-out: IC50 pDNA-PK
Summary of the method: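 Test compounds and bleomycin (10 μM) are added to adherent HCT116 cells for 6 h. Detection uses an HRP-based chemiluminescent ELISA, with phospho-DNA-PK signals standardised to total protein.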

| pIC50 | SMILES |
| --- | --- |
| > 6.30 | OC(c1ccc(F)c(-c2ncnc3cc(N4CCOCC4)ccc23)c1)c1ncccc1OC(F)F (centres unmarked) [Example 81, (3-Difluoromethoxy-pyridin-2-yl)-[4-fluoro-3-(7-morpholin-4-yl-quinazolin-4-yl)-phenyl]methanol] |
| 5.00 to 5.30 | COC(=O)c1ccc(C(O)c2cc(-c3ncnc4cc(N5CCOCC5)ccc34)c(F)cc2Cl)nn1 (centres unmarked) [Example 58, 6-{[2-Chloro-4-fluoro-5-(7-morpholin-4-yl-quinazolin-4-yl)phenyl]-hydroxymethyl}-pyridazine-3-carboxylic acid methyl ester] |
| > 6.30 | COc1cncnc1C(O)c1ccc(F)c(-c2ncnc3cc(N4CCOCC4)ccc23)c1 (centres unmarked) [Example 87, [4-Fluoro-3-(7-morpholin-4-yl-quinazolin-4-yl)-phenyl]-(5-methoxy-pyrimidin-4-yl)-methanol] |

Same assay, conditions: Homo sapiens, HCT-116, cellular DNA-PK phosphorylation at serine 2056, HCT116 cells; read-out: IC50 pDNA-PK

| pIC50 | SMILES |
| --- | --- |
| 5.00 to 5.30 | Cc1nccnc1C(O)c1cc(-c2ncnc3cc(N4CCOCC4)ccc23)ccc1F (centres unmarked) [Example 393, [2-Fluoro-5-(7-morpholin-4-yl-quinazolin-4-yl)-phenyl]-(3-methyl-pyrazin-2-yl)-methanol] |
| 5.30 to 6.30 | Cc1cncnc1C(O)c1cc(-c2ncnc3cc(N4CCOCC4)ccc23)ccc1F (centres unmarked) [Example 392, [2-Fluoro-5-(7-morpholin-4-yl-quinazolin-4-yl)-phenyl]-(5-methyl-pyrimidin-4-yl)-methanol] |
| 5.30 to 6.30 | OC(c1cc(-c2ncnc3cc(N4CCOCC4)ccc23)ccc1F)c1ncnc2ccoc12 (centres unmarked) [Example 374, [2-Fluoro-5-(7-morpholin-4-yl-quinazolin-4-yl)-phenyl]furo[3,2-d}-pyrimidin-4-yl-methanol] |
| 5.30 to 6.30 | Cn1ncc2c(C(O)c3cc(-c4ncnc5cc(N6CCOCC6)ccc45)ccc3F)ncnc21 (centres unmarked) [Example 391, [2-Fluoro-5-(7-morpholin-4-yl-quinazolin-4-yl)-phenyl]-(1-methyl-1H-pyrazolo[3,4-d}-pyrimidin-4-yl)-methanol] |
| 5.30 to 6.30 | Cc1cncnc1C(C(N)=O)c1cc(-c2ncnc3cc(N4CCOCC4)ccc23)ccc1Cl (centres unmarked) [Example 377, 2-[2-Chloro-5-(7-morpholin-4-yl-quinazolin-4-yl)-phenyl]-2-(5-methyl-pyrimidin-4-yl)-acetamide (Ena 2)] |
| > 6.30 | OC(c1ccc(F)c(-c2ncnc3cc(N4CCOCC4)ccc23)c1)c1nccnc1C(F)(F)F (centres unmarked) [Example 476, [4-Fluoro-3-(7-morpholin-4-yl-quinazolin-4-yl)-phenyl]-(3-trifluoro-methylpyrazin-2-yl)-methanol] |
| > 6.30 | Cn1ncc2c(C(O)c3ccc(F)c(-c4ncnc5cc(N6CCOCC6)ccc45)c3)ncnc21 (centres unmarked) [Example 404, [4-Fluoro-3-(7-morpholin-4-yl-quinazolin-4-yl)-phenyl]-(1-methyl-1H-pyrazolo[3,4-d}-pyrimidin-4-yl)-methanol] |

Same assay, conditions: Homo sapiens, HCT-116, phospho-serine 2056 DNA-PK, bleomycin-treated HCT116 cells; class symbols A-D; read-out: IC50 pDNA-PK

| pIC50 | SMILES |
| --- | --- |
| > 6.30 | OC(c1ccc(OC2COC2)nn1)c1cc(-c2ncnc3cc(N4CCOCC4)ccc23)c(F)cc1Cl (centres unmarked) [Example 100, [2-Chloro-4-fluoro-5-(7-morpholin-4-yl-quinazolin-4-yl)-phenyl]-[6-(oxetan-3-yloxy)pyridazin-3-yl]-methanol] |
| 5.30 to 6.30 | OC(c1ccc(OCC(F)(F)F)nn1)c1cc(-c2ncnc3cc(N4CCOCC4)ccc23)c(F)cc1Cl (centres unmarked) [Example 115, [2-Chloro-4-fluoro-5-(7-morpholin-4-yl-quinazolin-4-yl)-phenyl]-[6-(2,2,2-trifluoro-ethoxy)-pyridazin-3-yl]-methanol] |
| 5.30 to 6.30 | COc1ccc(C(O)c2cc(-c3ncnc4cc(N5CCOCC5)ccc34)c(F)cc2F)c(F)c1 (centres unmarked) [Example 124, [2,4-Difluoro-5-(7-morpholin-4-yl-quinazolin-4-yl)-phenyl]-(2-fluoro-4-methoxy-phenyl)methanol] |
| 5.30 to 6.30 | Cc1csc(C(O)c2cc(-c3ncnc4cc(N5CCOCC5)ccc34)c(F)cc2Cl)n1 (centres unmarked) [Example 181, [2-Chloro-4-fluoro-5-(7-morpholin-4-yl-quinazolin-4-yl)-phenyl]-(4-methyl-thiazol-2-yl)-methanol] |
| 5.30 to 6.30 | COc1ccc(C(O)c2cc(-c3ncnc4cc(N5CCOCC5)ccc34)c(F)cc2F)nc1 (centres unmarked) [Example 224, [2,4-Difluoro-5-(7-morpholin-4-yl-quinazolin-4-yl)-phenyl]-(5-methoxy-pyridin-2-yl)methanol] |

| SMILES | pIC50 |
| --- | --- |
| OCc1csc(C(O)c2cc(-c3ncnc4cc(N5C6CCC5COC6)ccc34)c(F)cc2Cl)n1 (centres unmarked) [Example 187, {2-Chloro-4-fluoro-5-[7-(3-oxa-8-aza-bicyclo[3.2.1]oct-8-yl)quinazolin-4-yl]-phenyl}-(4-hydroxy-methylthiazol-2-yl)-methanol] | 4.52 to 5.00 |

Same assay, conditions: Homo sapiens, HCT-116, phospho-serine 2056 DNA-PK, bleomycin-treated HCT116 cells; read-out: IC50 pDNA-PK

| pIC50 | SMILES |
| --- | --- |
| > 6.30 | [2H]c1c(N2CCOCC2)cc2ncnc(-c3cc(C(O)c4nccnc4C)ccc3F)c2c1[2H] (centres unmarked) [Example 226, [3-(5,6-Dideuterio-7-morpholino-quinazolin-4-yl)-4-fluorophenyl]-(3-methylpyrazin-2-yl)-methanol] |
| 4.52 to 5.00 | Cn1nc(C(C(N)=O)c2ccc(F)c(-c3ncnc4cc(N5CCOCC5)ccc34)c2)ccc1=O (centres unmarked) [Example 317, 2-[4-Fluoro-3-(7-morpholin-4-yl-quinazolin-4-yl)-phenyl]-2-(1-methyl-6-oxo-1,6-dihydro-pyridazin-3-yl)-acetamide] |
| 5.30 to 6.30 | COc1ccc(C(O)c2cc(-c3ncnc4cc(N5CCOCC5)ccc34)ccc2F)nn1 (centres unmarked) [Example 357, [2-Fluoro-5-(7-morpholin-4-yl-quinazolin-4-yl)-phenyl]-(6-methoxy-pyridazin-3-yl)-methanol] |

Same assay, conditions: cellular DNA-PK phosphorylation at serine 2056, HCT116 cells; read-out: IC50 pDNA-PK

| pIC50 | SMILES |
| --- | --- |
| > 6.30 | OC(c1cc(-c2ncnc3cc(N4CCOCC4)ccc23)ccc1Cl)c1ncnc2ccoc12 (centres unmarked) [Example 415, [2-Chloro-5-(7-morpholin-4-yl-quinazolin-4-yl)-phenyl]furo[3,2-d}-pyrimidin-4-yl-methanol (Ena 1)] |
| 5.30 to 6.30 | Cc1cncnc1C(O)c1cc(-c2ncnc3cc(N4CCOCC4)ccc23)ccc1Cl (centres unmarked) [Example 418, [2-Chloro-5-(7-morpholin-4-yl-quinazolin-4-yl)-phenyl]-(5-methyl-pyrimidin-4-yl)-methanol (Ena 1)] |
| 5.30 to 6.30 | Cc1cncnc1C(C(N)=O)c1cc(-c2ncnc3cc(N4CCOCC4)ccc23)ccc1Cl (centres unmarked) [Example 378, 2-[2-Chloro-5-(7-morpholin-4-yl-quinazolin-4-yl)-phenyl]-2-(5-methyl-pyrimidin-4-yl)-acetamide (Ena 1)] |
| > 6.30 | OC(c1cccnn1)c1cc(-c2ncnc3cc(N4CCOCC4)ccc23)ccc1Cl (centres unmarked) [Example 470, [2-Chloro-5-(7-morpholin-4-yl-quinazolin-4-yl)-phenyl]pyridazin-3-yl-methanol] |
| > 6.30 | OC(c1ccc(F)c(-c2ncnc3cc(N4CCOCC4)ccc23)c1)c1ncnc2occc12 (centres unmarked) [Example 434, [4-Fluoro-3-(7-morpholin-4-yl-quinazolin-4-yl)-phenyl]furo[2,3-d}-pyrimidin-4-yl-methanol] |

Same assay, conditions: cellular; HCT116 cells, 10 μM bleomycin, six hours; read-out: IC50 pDNA-PK

| pIC50 | SMILES |
| --- | --- |
| > 6.30 | OC(c1ccc2nccn2n1)c1cc(-c2ncnc3cc(N4CCOCC4)ccc23)c(F)cc1F (centres unmarked) [Example 21, [2,4-Difluoro-5-(7-morpholin-4-yl-quinazolin-4-yl)phenyl]-imidazo[1,2-b]pyridazin-6-ylmethanol] |

Same assay, conditions: phospho-serine 2056 DNA-PK, bleomycin-treated HCT116 cells; read-out: IC50 pDNA-PK

| pIC50 | SMILES |
| --- | --- |
| 5.30 to 6.30 | Cn1cnc2c(C(O)c3cc(-c4ncnc5cc(N6CCOCC6)ccc45)c(F)cc3F)ncnc21 (centres unmarked) [Example 347, [2,4-Difluoro-5-(7-morpholin-4-yl-quinazolin-4-yl)-phenyl]-(9-methyl-9H-purin-6-yl)-methanol (Ena 1)] |
